Reference: publication PMC6599250, “Functional diversity of inhibitors tackling the differentiation blockage of MLL-rearranged leukemia” (Journal of Hematology & Oncology, 2019)
Like-named read-outs stand apart in the source and are kept apart here.

Columns and labels:
Type in all cases: cell-based
HL-60 (MLL-WT) cells = test: Cell proliferation (alamarBlue) HL-60; settings: for IC50: Homo sapiens, read-out: IC50 proliferation
Experimental: (§1) Cells were seeded in the optimal growth medium at 4000–5000 cells/well in a 96 MTP and cultured 18–24 h before inhibitor treatment.

Jurkat (MLL-WT) cells = test: Cell proliferation (alamarBlue) Jurkat; settings: Homo sapiens
Experimental: as §1

OCI-AML-5 (MLL-WT) cells = test: Cell proliferation (alamarBlue) OCI-AML-5; settings: Homo sapiens
Experimental: as §1

OCI-AML-3 (MLL-WT) cells = test: Cell proliferation (alamarBlue) OCI-AML-3; settings: Homo sapiens
Experimental: as §1

MV4-11 (MLL-AF4) cells = test: Cell proliferation (alamarBlue) MV4-11; settings: Homo sapiens
Experimental: as §1

RS4;11 (MLL-AF4) cells = test: Cell proliferation (alamarBlue) RS4;11; settings: Homo sapiens, RS4-11, read-out: IC50 proliferation, RS4;11 (MLL-AF4)
Experimental: as §1

SEM (MLL-AF4) cells = test: Cell proliferation (alamarBlue) SEM
Experimental: as §1

ML-2 (MLL-AF6) cells = test: Cell proliferation (alamarBlue) ML-2
Experimental: as §1

MOLM-13 (MLL-AF9) cells = test: Cell proliferation (alamarBlue) MOLM-13; settings: Homo sapiens
Experimental: as §1

MOLM-14 (MLL-AF9) cells = test: Cell proliferation (alamarBlue) MOLM-14; settings: Homo sapiens
Experimental: as §1

NOMO-1 (MLL-AF9) cells = test: Cell proliferation (alamarBlue) NOMO-1; settings: Homo sapiens
Experimental: as §1

[1] = system: OCI-AML-2 (MLL-AF9) cells; test: Cell proliferation (alamarBlue) OCI-AML-2; settings: Homo sapiens
Experimental: as §1

KOPN-8 (MLL-ENL) cells = test: Cell proliferation (alamarBlue) KOPN-8; settings: Homo sapiens
Experimental: as §1

EOL-1 (MLL-TD) cells = test: Cell proliferation (alamarBlue) EOL-1; settings: Homo sapiens
Experimental: as §1

[2] = system: selected MLL-fused models; test: Cell proliferation, AML/ALL panel; settings: specifically in selected MLL-fused models (Fig. 2a); read-out: proliferation IC50 (significant effects)
Experimental: as §1

[3] = system: MLL-fused cell lines (MV4-11, MOLM-13); test: CD11b protein expression by flow cytometry, MLL-fused lines; settings: 4 and 7 days of treatment
Experimental: (§2) Four thousand cells per well were seeded 24 h before they were treated with the indicated inhibitor in a 96 MTP. After 4 or 7 days of treatment, cells were washed with PBS and stained with CD11b - APC (BioLegend, San Diego, California, USA) and DAPI (Thermo Fisher Scientific, Waltham, Massachusetts, USA) or AnnexinV – FITC (BioLegend, San Diego, California, USA) and PI solution (Sigma-Aldrich St. Louis, Missouri, USA) using the FACS Canto II (BD Biosciences, Heidelberg, Germany) and data was analyzed with FACSDiva software.

HL-60 cells = test: CD11b protein expression by flow cytometry, HL-60; settings: non-fused HL-60 cell line, 4 and 7 days of treatment
Experimental: as §2

[4] = system: MV4-11, MOLM-13 and HL-60 cells; test: Cell cycle analysis (PI, flow cytometry); settings: 4 days of treatment (Figure S2)
Experimental: Cells were washed with PBS and fixed overnight at − 20 °C with 70% ethanol. Fixed cells were stained with PI solution (Sigma-Aldrich St. Louis, MO, USA) solution containing RNase A (Qiagen, Hilden, Germany). Fluorescence was measured with FACS Canto II (BD Biosciences, Heidelberg, Germany) flow cytometer and data was analyzed with FACSDiva software.

Cc1c(CN2CCC3(CC2)CN(c2ncnc4sc(CC(F)(F)F)cc24)C3)ccc2c1cc(C#N)n2CC(N)=O [BAY-155]
anti-proliferation effect in non-fused HL-60 (HL-60 (MLL-WT) cells; HL-60, 4 days of treatment (Fig. 1a)): only affected with the 10 μM treatment
IC50 (HL-60 (MLL-WT) cells; HL-60, 24 h): > 10 µM
IC50 (HL-60 (MLL-WT) cells; HL-60, 96 h): 9.04 µM
IC50 (HL-60 (MLL-WT) cells; HL-60, 168 h): > 10 µM
IC50 (Jurkat (MLL-WT) cells; read-out: IC50 proliferation, Jurkat (MLL-WT), D1): > 10 µM
IC50 (Jurkat (MLL-WT) cells; read-out: IC50 proliferation, Jurkat (MLL-WT), D4): 9 µM
IC50 (Jurkat (MLL-WT) cells; read-out: IC50 proliferation, Jurkat (MLL-WT), D7): 9.09 µM
IC50 (OCI-AML-5 (MLL-WT) cells; OCI-AML-5, read-out: IC50 proliferation, OCI-AML-5 (MLL-WT), D1): > 10 µM
IC50 (OCI-AML-5 (MLL-WT) cells; OCI-AML-5, read-out: IC50 proliferation, OCI-AML-5 (MLL-WT), D4): > 10 µM
IC50 (OCI-AML-5 (MLL-WT) cells; OCI-AML-5, read-out: IC50 proliferation, OCI-AML-5 (MLL-WT), D7): 8.56 µM
IC50 (OCI-AML-3 (MLL-WT) cells; OCI-AML-3, read-out: IC50 proliferation, OCI-AML-3 (MLL-WT), D1): > 10 µM
IC50 (OCI-AML-3 (MLL-WT) cells; OCI-AML-3, read-out: IC50 proliferation, OCI-AML-3 (MLL-WT), D4): 1.37 µM
IC50 (OCI-AML-3 (MLL-WT) cells; OCI-AML-3, read-out: IC50 proliferation, OCI-AML-3 (MLL-WT), D7): 1.56 µM
IC50 (MV4-11 (MLL-AF4) cells; MV4-11, read-out: IC50 proliferation, MV4-11 (MLL-AF4), D1): > 10 µM
IC50 (MV4-11 (MLL-AF4) cells; MV4-11, read-out: IC50 proliferation, MV4-11 (MLL-AF4), D4): 0.09 µM
IC50 (MV4-11 (MLL-AF4) cells; MV4-11, read-out: IC50 proliferation, MV4-11 (MLL-AF4), D7): 0.03 µM
IC50 (RS4;11 (MLL-AF4) cells; D1): > 10 µM
IC50 (RS4;11 (MLL-AF4) cells; D4): > 10 µM
IC50 (RS4;11 (MLL-AF4) cells; D7): 5.99 µM
IC50 (SEM (MLL-AF4) cells; read-out: IC50 proliferation, SEM (MLL-AF4), D1): > 10 µM
IC50 (SEM (MLL-AF4) cells; read-out: IC50 proliferation, SEM (MLL-AF4), D4): 0.66 µM
IC50 (SEM (MLL-AF4) cells; read-out: IC50 proliferation, SEM (MLL-AF4), D7): 0.79 µM
IC50 (ML-2 (MLL-AF6) cells; read-out: IC50 proliferation, ML-2 (MLL-AF6), D1): > 10 µM
IC50 (ML-2 (MLL-AF6) cells; read-out: IC50 proliferation, ML-2 (MLL-AF6), D4): > 10 µM
IC50 (ML-2 (MLL-AF6) cells; read-out: IC50 proliferation, ML-2 (MLL-AF6), D7): > 10 µM
IC50 (MOLM-13 (MLL-AF9) cells; MOLM-13, read-out: IC50 proliferation, MOLM-13 (MLL-AF9), D1): > 10 µM
IC50 (MOLM-13 (MLL-AF9) cells; MOLM-13, read-out: IC50 proliferation, MOLM-13 (MLL-AF9), D4): 0.14 µM
IC50 (MOLM-13 (MLL-AF9) cells; MOLM-13, read-out: IC50 proliferation, MOLM-13 (MLL-AF9), D7): 0.28 µM
IC50 (MOLM-14 (MLL-AF9) cells; MOLM-14, read-out: IC50 proliferation, MOLM-14 (MLL-AF9), D1): 6.89 µM
IC50 (MOLM-14 (MLL-AF9) cells; MOLM-14, read-out: IC50 proliferation, MOLM-14 (MLL-AF9), D4): 0.31 µM
IC50 (MOLM-14 (MLL-AF9) cells; MOLM-14, read-out: IC50 proliferation, MOLM-14 (MLL-AF9), D7): 0.23 µM
IC50 (NOMO-1 (MLL-AF9) cells; NOMO-1, read-out: IC50 proliferation, NOMO-1 (MLL-AF9), D1): > 10 µM
IC50 (NOMO-1 (MLL-AF9) cells; NOMO-1, read-out: IC50 proliferation, NOMO-1 (MLL-AF9), D4): 0.15 µM
IC50 (NOMO-1 (MLL-AF9) cells; NOMO-1, read-out: IC50 proliferation, NOMO-1 (MLL-AF9), D7): 0.07 µM
IC50 ([1]; OCI-AML2, read-out: IC50 proliferation, OCI-AML-2 (MLL-AF9), D1): > 10 µM
IC50 ([1]; OCI-AML2, read-out: IC50 proliferation, OCI-AML-2 (MLL-AF9), D4): 8.26 µM
IC50 ([1]; OCI-AML2, read-out: IC50 proliferation, OCI-AML-2 (MLL-AF9), D7): 9.15 µM
IC50 (KOPN-8 (MLL-ENL) cells; KOPN-8, read-out: IC50 proliferation, KOPN-8 (MLL-ENL), D1): > 10 µM
IC50 (KOPN-8 (MLL-ENL) cells; KOPN-8, read-out: IC50 proliferation, KOPN-8 (MLL-ENL), D4): 6.34 µM
IC50 (KOPN-8 (MLL-ENL) cells; KOPN-8, read-out: IC50 proliferation, KOPN-8 (MLL-ENL), D7): 1.89 µM
IC50 (EOL-1 (MLL-TD) cells; EOL1, read-out: IC50 proliferation, EOL-1 (MLL-TD), D1): 6.83 µM
IC50 (EOL-1 (MLL-TD) cells; EOL1, read-out: IC50 proliferation, EOL-1 (MLL-TD), D4): 1.62 µM
IC50 (EOL-1 (MLL-TD) cells; EOL1, read-out: IC50 proliferation, EOL-1 (MLL-TD), D7): 1.14 µM
IC50 [2]: < 1 µM
CD11b protein level [3]: increased CD11b protein level in a dose and time-dependent manner
CD11b level (HL-60 cells): did not increase CD11b level
cell cycle effect [4]: decrease of cells in S and G2/M phase with increasing concentrations
